Numbers after ± are expanded uncertainties.
Test: molar enthalpy of vaporization or sublimation
Conditions: Calvet microcalorimetry

Row | Structure (SMILES) | molar enthalpy (298.15 K, Crystal) [kJ/mol] | molar enthalpy (298.15 K, Liquid) [kJ/mol] | molar enthalpy (329.2 K, Liquid) [kJ/mol]
1 | Oc1ccc(Br)cc1 [4-bromophenol] | 83.1 ± 3.2 | – | –
2 | Oc1ccccc1Br [phenol, 2-bromo-] | – | 55.5 ± 2.6 | 55.5 ± 2.6

— the NIST ThermoML archive (doi:10.1016/j.jct.2009.04.017)
